Key:
Format in all cases: cell-based, human
HR2 cells [1] = experiment: Clonogenic assay; conditions: HR2, 2.5 µM
Description: (§1) Figure 8 C29 is efficient on radioresistant MB cell lines. (A) Cell death after 48 h of treatment with control (DMSO, CT) or C29 1, 2.5, or 5 µM on radiation-resistant cells (RR) and normal cells (N), n = 3. Statistics were performed using the one-way method ANOVA. * p < 0.05, ** p < 0.01, *** p < 0.001. For this figure, DR1 = D1, DR2 = D2, HR1 = H1, HR2 = H2, and C8D1A = C8. (B) Proliferation of DR1/DR2 (A) and HR1/HR2 (B) radio-resistant cells after 1 µM C29 treatment or control (DMSO), n = 3. (C) Clonogenic assay on DR1, DR2 (n = 3) and HR1, HR2 (n = 3) cells after treatment with control (DMSO) or C29 (1 µM or 2.5 µM). (D) Cell migration through the Boyden chamber of DR1 and DR2 cells specifically attracted by 200 ng/mL CXCL8. Cells were treated with control (DMSO) or C29 (1 and 2.5 µM). Results are expressed as percentage of control (n = 3). Scale = 1000 μm. Statistics were performed using Student t-test for 2 comparisons only or ANOVA test for multiple comparisons. * p < 0.05, ** p < 0.01, *** p < 0.001. […]
(§2) each month by using PlasmoTest Kit (#10L07‐MM, InvivoGen, Toulouse, France). Daoy and ONS‐76 belong to the Shh genetic subgroup, D341‐Med and HD‐MB03 to group 3. […]
(§3) 150 Daoy/DR1/DR2/ ONS ‐ 76 and 300 HD ‐ MB03/HR1/HR2 cells were seeded in trip‐ licate in 6‐well plates in the presence or absence of treatment (1 or 2∙5μM […] or DMSO as control). On day 9 (Daoy/ONS‐76) and day 11 (HD ‐MB03), cells were fixed in ice‐cold absolute ethanol (Sigma) for 20 min, washed with PBS and then stained with Giemsa 50% for 30 min. The number of clones was quantified using ImageJ software. We only considered clones containing more than 50 cells. […]
Violet. […]
(§4) 5000 cells were plated in 48 multi‐well plates coated with agarose 0∙8%. After two days, spheroids were mixed with 100μl of matrigel mix (200μl of matrigel (Corning Mat‐ rigel Matrix, Fontenay‐sous‐Bois, France), 100 μl collagen I (8 mg/ml, Corning), 80 μl HEPES 1M and 320μl respective medium) in 12 multi‐well plates. […]

[2] = tested on: radiation resistant Daoy cells (DR1, DR2); experiment: Clonogenic assay
Description: as §1, §2, §3
Violet. […]
as §4

HR1 cells = experiment: Cell death assay (PI staining), radiation-resistant cells; conditions: HR1 compared to astrocytes
Description: (§5) As with naïve cells, we determined the IC50 for DR1, DR2, […] and their SI compared to astrocytes.
as §1
(§6) each month by using PlasmoTest Kit (#10L07‐MM, InvivoGen, Toulouse, France). Daoy and ONS‐76 belong to the Shh genetic subgroup, D341‐Med and HD‐MB03 to group 3.
(§7) Mouse cerebellar astrocytes C8D1A (CRL ‐2541) were purchased from the American Tissue Culture Collection ATCC. These cells were cultured in DMEM (1X) + GlutaMAX (Invitrogen) medium supplemented with 10% FBS (D. Dutscher). Cells were cultured at 37°C in a 5% CO2 incubator. […]
(§8) After 2 days, cells were treated with control (DMSO) or C29
(§9) (1, 2∙5, 5μM) for 48 hours. After 48 hours, the medium was recovered, and the adherent cells were dissociated and added to the supernatant. Cell death was detected by PE chan‐ nel using FACS Cytoflex (Beckman) immediately after labelling the cells with 1ug/ml pro‐ pidium iodide (Miltenyi Biotec). Data were presented with the percentage of cell death after subtracting the percentage of untreated and unlabelled dead cells.
(§10) Migration in Boyden chambers
(§11) The cells were deprived of serum overnight. 50000 cells were plated in triplicate in serum‐free medium into the upper compartment of pre‐wetted inserts (24‐well plate fit, translucent PET membrane, 8∙0 μ m pore size, Falcon, Thermo Fisher). Medium containing 10% serum or CXCL8 (200ng/ml, Peprotech) was added to the lower compartment. After 24 hours, migrated cells were fixed with 3% paraformaldehyde and stained with Crystal […]
Violet. […]
(§12) 5000 cells were plated in 48 multi‐well plates coated with agarose 0∙8%. […]

DR1 cells = experiment: as above; conditions: DR1 compared to astrocytes
Description: as §5, §1, §6, §7, §8, §9, §10, §11
Violet. […]
as §12

HR2 cells [3] = experiment: as above; conditions: HR2 compared to astrocytes
Description: as §5, §1, §6, §7, §8, §9, §10, §11
Violet. […]
as §12

DR2 cells = experiment: as above; conditions: DR2 compared to astrocytes
Description: as §5, §1, §6, §7, §8, §9, §10, §11
Violet. […]
as §12

O=C(Nc1cccc(Cl)c1)Nc1nc2ccc([N+](=O)[O-])cc2s1 [C29, 1-(3-chlorophenyl)-3-(6-nitrobenzo[d]thiazol-2-yl) urea]
Clone formation (HR2 cells [1]): significantly reduced clone formation
Clone formation ([2]; DR1, DR2, 1 µM): effective
Clone formation ([2]; DR1, DR2, 2.5 µM): completely prevented clone formation
Selectivity index (SI) (HR1 cells): 7.7
Selectivity index (SI) (DR1 cells): 3.9
Selectivity index (SI) (HR2 cells [3]): 2.8
Selectivity index (SI) (DR2 cells): 3.9
